Experimental data from PubChem BioAssay (NCI).
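Growth conditions: 96-well plates. Treatment: test compound, 48 hours, 5 concentrations. Analysis: linear interpolation between bracketing concentrations; unreached endpoints set to highest concentration. The concentration for 50% growth inhibition is given as GI50. At the TGI there is no net growth.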 Where a SMILES comes first, the peptide text is derived from it.

How the values were obtained:
Test in all cases: NCI-60 cell line screen, 48 h
NCI-H460 lung = tested on: NCI-H460 lung
SK-MEL-5 melanoma = tested on: SK-MEL-5 melanoma
SK-OV-3 ovarian = tested on: SK-OV-3 ovarian
MDA-MB-231 breast = tested on: MDA-MB-231 breast
NCI/ADR-RES ovarian = tested on: NCI/ADR-RES ovarian
MDA-MB-435 = tested on: MDA-MB-435
SF-268 CNS = tested on: SF-268 CNS
SK-MEL-28 melanoma = tested on: SK-MEL-28 melanoma
OVCAR-3 ovarian = tested on: OVCAR-3 ovarian
A549 NSCLC = tested on: A549 NSCLC
SF-295 CNS = tested on: SF-295 CNS
SR leukemia = tested on: SR leukemia
UO-31 renal = tested on: UO-31 renal
RXF 393 renal = tested on: RXF 393 renal
SW-620 colon = tested on: SW-620 colon
HOP-62 NSCLC = tested on: HOP-62 NSCLC
SNB-75 CNS = tested on: SNB-75 CNS
BT-549 breast = tested on: BT-549 breast
COLO 205 colon = tested on: COLO 205 colon
M14 melanoma = tested on: M14 melanoma
MCF7 breast = tested on: MCF7 breast
SK-MEL-2 melanoma = tested on: SK-MEL-2 melanoma
NCI-H226 lung = tested on: NCI-H226 lung
HCT-15 colon = tested on: HCT-15 colon
HCT-116 colon = tested on: HCT-116 colon
HL-60(TB) leukemia = tested on: HL-60(TB) leukemia
HOP-92 NSCLC = tested on: HOP-92 NSCLC
SN12C renal = tested on: SN12C renal
EKVX NSCLC = tested on: EKVX NSCLC
RPMI-8226 leukemia = tested on: RPMI-8226 leukemia
NCI-H23 lung = tested on: NCI-H23 lung
OVCAR-8 ovarian = tested on: OVCAR-8 ovarian
ACHN renal = tested on: ACHN renal
CCRF-CEM leukemia = tested on: CCRF-CEM leukemia
HS 578T breast = tested on: HS 578T breast
PC-3 prostate = tested on: PC-3 prostate
TK-10 renal = tested on: TK-10 renal
NCI-H522 lung = tested on: NCI-H522 lung
KM12 colon = tested on: KM12 colon
MDA-N = tested on: MDA-N
HT29 colon = tested on: HT29 colon
U251 CNS = tested on: U251 CNS
MALME-3M melanoma = tested on: MALME-3M melanoma
K-562 leukemia = tested on: K-562 leukemia
LOX IMVI melanoma = tested on: LOX IMVI melanoma
786-0 renal = tested on: 786-0 renal
OVCAR-5 ovarian = tested on: OVCAR-5 ovarian
OVCAR-4 ovarian = tested on: OVCAR-4 ovarian
CAKI-1 renal = tested on: CAKI-1 renal
UACC-257 melanoma = tested on: UACC-257 melanoma
IGROV1 ovarian = tested on: IGROV1 ovarian
SNB-19 CNS = tested on: SNB-19 CNS
DU-145 prostate = tested on: DU-145 prostate
MOLT-4 leukemia = tested on: MOLT-4 leukemia
HCC-2998 colon = tested on: HCC-2998 colon
T-47D breast = tested on: T-47D breast
UACC-62 melanoma = tested on: UACC-62 melanoma

## CCC(C)C(NC(=O)C(CCCCN)NC(=O)C(NC(=O)C(CCC(N)=O)NC(=O)C(N)CCCNC(=N)N)C(C)CC)C(=O)NC(Cc1c[nH]c2ccccc12)C(=O)NC(Cc1ccccc1)C(=O)NC(CCC(N)=O)C(=O)NC(CC(N)=O)C(=O)NC(CCCNC(=N)N)C(=O)NC(CCCNC(=N)N)C(=O)NC(CCSC)C(=O)NC(CCCCN)C(=O)NC(Cc1c[nH]c2ccccc12)C(=O)NC(CCCCN)C(=O)NC(CCCCN)C(=O)N1CCCC1C(=O)NC(C)C(=O)NC(CCCCN)C(=O)NC(CCCNC(=N)N)C(=O)NC(CCCCN)C(=O)NC(CC(C)C)C(=O)NC(Cc1ccccc1)C(=O)NCC(=O)O (stereo not given) (H-RQIKIWFQNRRMKWKKPAKRKLFG-OH; configuration not given here)
NCI-H460 lung
  TGI: > 25 µM
SK-MEL-5 melanoma
  TGI: > 25 µM
SK-OV-3 ovarian
  TGI: > 25 µM
MDA-MB-231 breast
  TGI: > 25 µM
NCI/ADR-RES ovarian
  TGI: > 25 µM
MDA-MB-435
  TGI: > 25 µM
SF-268 CNS
  TGI: > 25 µM
SK-MEL-28 melanoma
  TGI: > 25 µM
OVCAR-3 ovarian
  TGI: > 25 µM
A549 NSCLC
  TGI: > 25 µM
SF-295 CNS
  TGI: > 25 µM
SR leukemia
  TGI: > 25 µM
UO-31 renal
  TGI: > 25 µM
RXF 393 renal
  TGI: > 25 µM
SW-620 colon
  TGI: > 25 µM
HOP-62 NSCLC
  TGI: > 25 µM
SNB-75 CNS
  TGI: > 25 µM
BT-549 breast
  TGI: > 25 µM
COLO 205 colon
  TGI: > 25 µM
M14 melanoma
  TGI: > 25 µM
MCF7 breast
  TGI: > 25 µM
SK-MEL-2 melanoma
  TGI: > 25 µM
NCI-H226 lung
  TGI: > 25 µM
HCT-15 colon
  TGI: > 25 µM
HCT-116 colon
  TGI: > 25 µM
HL-60(TB) leukemia
  TGI: 17.6 µM
HOP-92 NSCLC
  TGI: > 25 µM
SN12C renal
  TGI: > 25 µM
EKVX NSCLC
  TGI: > 25 µM
RPMI-8226 leukemia
  TGI: 15.1 µM
NCI-H23 lung
  TGI: > 25 µM
OVCAR-8 ovarian
  TGI: > 25 µM
ACHN renal
  TGI: > 25 µM
CCRF-CEM leukemia
  TGI: > 25 µM
HS 578T breast
  TGI: > 25 µM
PC-3 prostate
  TGI: > 25 µM
TK-10 renal
  TGI: > 25 µM
NCI-H522 lung
  TGI: > 25 µM
KM12 colon
  TGI: > 25 µM
MDA-N
  TGI: > 25 µM
HT29 colon
  TGI: > 25 µM
U251 CNS
  TGI: > 25 µM
MALME-3M melanoma
  TGI: 18.3 µM
K-562 leukemia
  TGI: > 25 µM
LOX IMVI melanoma
  TGI: > 25 µM
786-0 renal
  TGI: > 25 µM
OVCAR-5 ovarian
  TGI: > 25 µM
OVCAR-4 ovarian
  TGI: > 25 µM
CAKI-1 renal
  TGI: > 25 µM
UACC-257 melanoma
  TGI: > 25 µM
IGROV1 ovarian
  TGI: > 25 µM
SNB-19 CNS
  TGI: > 25 µM
DU-145 prostate
  TGI: > 25 µM
MOLT-4 leukemia
  TGI: > 25 µM
HCC-2998 colon
  TGI: > 25 µM

## NS(=O)(=O)c1ccc(-n2c(-c3cccs3)nc3ccc(I)cc3c2=O)cc1
NCI-H460 lung
  TGI: 83 µM
SK-MEL-5 melanoma
  TGI: 47.1 µM
SK-OV-3 ovarian
  TGI: 53.7 µM
NCI/ADR-RES ovarian
  TGI: 86.3 µM
MDA-MB-435
  TGI: 42.4 µM
SF-268 CNS
  TGI: 86.8 µM
SK-MEL-28 melanoma
  TGI: 55.5 µM
OVCAR-3 ovarian
  TGI: 35.1 µM
A549 NSCLC
  TGI: 41.5 µM
SF-295 CNS
  TGI: 75.8 µM
SR leukemia
  TGI: > 100 µM
UO-31 renal
  TGI: 42.6 µM
RXF 393 renal
  TGI: 88.9 µM
SW-620 colon
  TGI: > 100 µM
HOP-62 NSCLC
  TGI: 84.2 µM
SNB-75 CNS
  TGI: 87.4 µM
BT-549 breast
  TGI: 37.9 µM
COLO 205 colon
  TGI: 40.3 µM
M14 melanoma
  TGI: 56 µM
MCF7 breast
  TGI: 65.4 µM
SK-MEL-2 melanoma
  GI50: 21.8 µM
  TGI: 47.6 µM
NCI-H226 lung
  TGI: 87.3 µM
HCT-15 colon
  TGI: 50.9 µM
HCT-116 colon
  TGI: 31 µM
HL-60(TB) leukemia
  TGI: 64.4 µM
HOP-92 NSCLC
  TGI: 54.1 µM
SN12C renal
  TGI: 98.9 µM
EKVX NSCLC
  TGI: 54.3 µM
RPMI-8226 leukemia
  GI50: 25.3 µM
  TGI: 62.1 µM
NCI-H23 lung
  TGI: 51.1 µM
OVCAR-8 ovarian
  TGI: > 100 µM
ACHN renal
  TGI: 53.8 µM
CCRF-CEM leukemia
  GI50: 41.2 µM
  TGI: > 100 µM
PC-3 prostate
  TGI: 81.9 µM
TK-10 renal
  TGI: 50.8 µM
NCI-H522 lung
  TGI: 39.1 µM
KM12 colon
  TGI: 59.3 µM
MDA-N
  TGI: > 100 µM
HT29 colon
  TGI: 94.1 µM
U251 CNS
  TGI: 48.8 µM
MALME-3M melanoma
  TGI: 43.2 µM
K-562 leukemia
  GI50: 37.2 µM
  TGI: > 100 µM
T-47D breast
  GI50: 19.2 µM
  TGI: 43.5 µM
LOX IMVI melanoma
  TGI: 37 µM
786-0 renal
  TGI: 77.8 µM
OVCAR-5 ovarian
  TGI: 59.9 µM
OVCAR-4 ovarian
  TGI: 86.3 µM
CAKI-1 renal
  TGI: 36.6 µM
UACC-257 melanoma
  TGI: 19.3 µM
UACC-62 melanoma
  TGI: 46.2 µM
IGROV1 ovarian
  TGI: 56 µM
SNB-19 CNS
  TGI: 70.6 µM
DU-145 prostate
  TGI: 35.9 µM
MOLT-4 leukemia
  TGI: > 100 µM
HCC-2998 colon
  TGI: 39.9 µM
